Where two headings read alike, the source gives them in different places.
How the values were obtained:
[1] = tested on: fecal microbiota; conditions: for Fold change (week 11/week 0) in relative species abundance: fecal samples, 11 weeks consumption
Procedure: Illumina sequence reads were mapped to the human microbiome reference genome database of the Human Microbiome Project [www(dot)hmpdacc(dot)org/HMREFG/^32], and to a gut microbial gene catalogue^33 using GEM mapper^58 with the following parameters: • -m 3 -s 0 -q offset-33 -gem-quality-threshold 26
Microbial species abundance was measured as the fraction of reads that mapped to a single species in the database. An EM algorithm adapted from Pathoscope^59 was employed to determine the correct assignment of reads that mapped to more than one species. We considered only species for which at least 10% of the genome was covered (each coverage bin was 10,000-bp long) in at least one of the growth conditions (saccharin, water, or glucose). Reads mapped to the gut microbial gene catalogue were assigned a KEGG^34,35 ID according to the mapping available with the catalogue. Genes were subsequently mapped to KEGG pathways, and only pathways whose gene coverage was above 0.2 were included.

[2] = tested on: fecal matter from naïve mice; assay: In vitro anaerobic culturing of fecal matter with saccharin; format: cell-based; conditions: anaerobic culture with saccharin 5 mgml^−1, day 9
Procedure: pooled fecal matter from naïve adult WT C57Bl/6 male mice was resuspended in 5 ml PBS in an anaerobic chamber (Coy Laboratory Products, 75% N2, 20% CO2, 5% H2), vortexed for 3 minutes and allowed to settle by gravity for 2 minutes. […] were added to a tube containing Chopped Meat Carbohydrate Broth, PR II (BD) and […] of a 5 mgml-1 saccharin solution or an equal volume of PBS. Every 3 days, 500 ml of culture were diluted to fresh medium containing saccharin or PBS. After 9 days, cultures were used for inoculation of germ-free mice.
Frozen fecal samples were processed for DNA isolation using the MoBio PowerSoil kit according to the manufacturer's instructions. […] the variable region 2 (V2) of the 16S rRNA gene were generated by using the following barcoded primers: Fwd 5′-[…]-3′ (SEQ ID NO: 3), Rev 5′-[…]-3′ (SEQ ID NO: 4). […] Reads were then processed using the QIIME (Quantitative Insights Into Microbial Ecology) analysis pipeline as described, version 1.8. Paired-end joined sequences were grouped into operational taxonomic units (OTUs) using the UCLUST algorithm and the greengenes database. Sequences with distance-based similarity of 97% or greater over median sequence length of 353 bp were assigned to the same OTU. Samples were grouped according to the treatment. […] P-values were FDR corrected for multiple hypothesis testing.

Compound: O=C1NS(=O)(=O)c2ccccc21 [saccharin]
- changes in microbial relative species abundance ([1]; 11 weeks commercial saccharin vs glucose or water, F-test p<10^−10): largest changes
- Fold change (week 11/week 0) in relative species abundance ([1]; Symbol BACT_9, Number 996): 0.65
- Fold change (week 11/week 0) in relative species abundance ([1]; Symbol BACT_22, Number 639): 0.36
- Fold change (week 11/week 0) in relative species abundance ([1]; Symbol BACT_38, Number 780): 0.50
- Fold change (week 11/week 0) in relative species abundance ([1]; Symbol BACT_49, Number 420): 0.02
- Fold change (week 11/week 0) in relative species abundance ([1]; Symbol BACT_60, Number 752): 0.71
- Fold change (week 11/week 0) in relative species abundance ([1]; Symbol BACT_65, Number 918): 6.73
- Fold change (week 11/week 0) in relative species abundance ([1]; Symbol BACT_70, Number 863): 9.41
- Fold change (week 11/week 0) in relative species abundance ([1]; Symbol BACT_85, Number 934): 0.45
- Fold change (week 11/week 0) in relative species abundance ([1]; Symbol BACT_142, Number 843): 0.42
- Fold change (week 11/week 0) in relative species abundance ([1]; Symbol BACT_170, Number 883): 0.48
- Fold change (week 11/week 0) in relative species abundance ([1]; Symbol BACT_171, Number 748): 0.56
- Fold change (week 11/week 0) in relative species abundance ([1]; Symbol BACT_172, Number 768): 1.03
- Fold change (week 11/week 0) in relative species abundance ([1]; Symbol BACT_178, Number 921): 0.28
- Fold change (week 11/week 0) in relative species abundance ([1]; Symbol BACT_181, Number 767): 0.40
- Fold change (week 11/week 0) in relative species abundance ([1]; Symbol BACT_185, Number 633): 8.79
- Fold change (week 11/week 0) in relative species abundance ([1]; Symbol BACT_189, Number 636): 1.92
- Fold change (week 11/week 0) in relative species abundance ([1]; Symbol BACT_192, Number 995): 0.36
- Fold change (week 11/week 0) in relative species abundance ([1]; Symbol BACT_194, Number 846): 0.51
- Fold change (week 11/week 0) in relative species abundance ([1]; Symbol BACT_195, Number 523): 0.40
- Fold change (week 11/week 0) in relative species abundance ([1]; Symbol BACT_196, Number 395): 12.66
- Fold change (week 11/week 0) in relative species abundance ([1]; Symbol BACT_225, Number 953): 0.44
- Fold change (week 11/week 0) in relative species abundance ([1]; Symbol BACT_258, Number 620): 0.55
- Fold change (week 11/week 0) in relative species abundance ([1]; Symbol BACT_260, Number 1443): 0.55
- Fold change (week 11/week 0) in relative species abundance ([1]; Symbol BACT_300, Number 769): 0.50
- Fold change (week 11/week 0) in relative species abundance ([1]; Symbol BACT_371, Number 960): 2.13
- Fold change (week 11/week 0) in relative species abundance ([1]; Symbol BACT_374, Number 805): 0.34
- Fold change (week 11/week 0) in relative species abundance ([1]; Symbol BACT_392, Number 915): 0.66
- Fold change (week 11/week 0) in relative species abundance ([1]; Symbol BACT_393, Number 932): 0.53
- Fold change (week 11/week 0) in relative species abundance ([1]; Symbol BACT_397, Number 914): 0.45
- Fold change (week 11/week 0) in relative species abundance ([1]; Symbol BACT_409, Number 845): 9.91
- Fold change (week 11/week 0) in relative species abundance ([1]; Symbol BACT_413, Number 847): 1.25
- Fold change (week 11/week 0) in relative species abundance ([1]; Symbol BACT_418, Number 749): 0.22
- Fold change (week 11/week 0) in relative species abundance ([1]; Symbol BACT_419, Number 920): 0.15
- Fold change (week 11/week 0) in relative species abundance ([1]; Symbol BACT_420, Number 922): 0.33
- Fold change (week 11/week 0) in relative species abundance ([1]; Symbol BACT_424, Number 906): 0.29
- Fold change (week 11/week 0) in relative species abundance ([1]; Symbol BACT_449, Number 772): 2.90
- Fold change (week 11/week 0) in relative species abundance ([1]; Symbol BACT_463, Number 719): 0.00
- Fold change (week 11/week 0) in relative species abundance ([1]; Symbol BACT_496, Number 765): 2.97
- Fold change (week 11/week 0) in relative species abundance ([1]; Symbol BACT_499, Number 35): 0.24
- Fold change (week 11/week 0) in relative species abundance ([1]; Symbol BACT_511, Number 591): 3.71
- Fold change (week 11/week 0) in relative species abundance ([1]; Symbol BACT_535, Number 940): 0.14
- Fold change (week 11/week 0) in relative species abundance ([1]; Symbol BACT_539, Number 117): 0.22
- Fold change (week 11/week 0) in relative species abundance ([1]; Symbol BACT_551, Number 907): 0.62
- Fold change (week 11/week 0) in relative species abundance ([1]; Symbol BACT_572, Number 963): 0.70
- Fold change (week 11/week 0) in relative species abundance ([1]; Symbol BACT_586, Number 849): 0.70
- Fold change (week 11/week 0) in relative species abundance ([1]; Symbol BACT_627, Number 886): 0.16
- Fold change (week 11/week 0) in relative species abundance ([1]; Symbol BACT_632, Number 871): 3.17
- Fold change (week 11/week 0) in relative species abundance ([1]; Symbol BACT_681, Number 125): 0.00
- Fold change (week 11/week 0) in relative species abundance ([1]; Symbol BACT_686, Number 1007): 0.00
- Fold change (week 11/week 0) in relative species abundance ([1]; Symbol BACT_722, Number 377): 1.88
- Fold change (week 11/week 0) in relative species abundance ([1]; Symbol BACT_769, Number 610): 3.38
- Fold change (week 11/week 0) in relative species abundance ([1]; Symbol BACT_843, Number 1318): 0.16
- Fold change (week 11/week 0) in relative species abundance ([1]; Symbol BACT_850, Number 394): 2.51
- Fold change (week 11/week 0) in relative species abundance ([1]; Symbol BACT_852, Number 766): 0.77
- Fold change (week 11/week 0) in relative species abundance ([1]; Symbol BACT_855, Number 835): 0.34
- Fold change (week 11/week 0) in relative species abundance ([1]; Symbol BACT_890, Number 163): 0.15
- Fold change (week 11/week 0) in relative species abundance ([1]; Symbol BACT_913, Number 904): 1.10
- Fold change (week 11/week 0) in relative species abundance ([1]; Symbol BACT_915, Number 1315): 10.39
- Fold change (week 11/week 0) in relative species abundance ([1]; Symbol BACT_931, Number 1088): 0.53
- Fold change (week 11/week 0) in relative species abundance ([1]; Symbol BACT_1001, Number 933): 0.75
- Fold change (week 11/week 0) in relative species abundance ([1]; Symbol BACT_1025, Number 751): 0.53
- Fold change (week 11/week 0) in relative species abundance ([1]; Symbol BACT_1043, Number 948): 1.08
- Fold change (week 11/week 0) in relative species abundance ([1]; Symbol BACT_1083, Number 1008): 0.00
- Fold change (week 11/week 0) in relative species abundance ([1]; Symbol BACT_1131, Number 942): 0.34
- Fold change (week 11/week 0) in relative species abundance ([1]; Symbol BACT_1311, Number 1259): 0.34
- Fold change (week 11/week 0) in relative species abundance ([1]; Symbol BACT_1314, Number 1399): 0.67
- Fold change (week 11/week 0) in relative species abundance ([1]; Symbol BACT_1315, Number 1395): 0.46
- Fold change (week 11/week 0) in relative species abundance ([1]; Symbol BACT_1321, Number 1255): 3.20
- Fold change (week 11/week 0) in relative species abundance ([1]; Symbol BACT_1322, Number 1396): 0.91
- Fold change (week 11/week 0) in relative species abundance ([1]; Symbol BACT_1324, Number 1264): 12.01
- Fold change (week 11/week 0) in relative species abundance ([1]; Symbol BACT_1348, Number 1311): 9.24
- Fold change (week 11/week 0) in relative species abundance ([1]; Symbol BACT_1378, Number 1375): 141.18
- Fold change (week 11/week 0) in relative species abundance ([1]; Symbol BACT_1427, Number 1266): 0.00
- Fold change (week 11/week 0) in relative species abundance ([1]; Symbol BACT_1442, Number 1400): 2.16
- Fold change (week 11/week 0) in relative species abundance ([1]; Symbol BACT_1457, Number 1337): 0.23
- Fold change (week 11/week 0) in relative species abundance ([1]; Symbol BACT_1496, Number 1321): 2.65
- Fold change (week 11/week 0) in relative species abundance ([1]; Symbol BACT_1501, Number 1331): 0.17
- Fold change (week 11/week 0) in relative species abundance ([1]; Symbol BACT_1526, Number 1227): 0.07
- Fold change (week 11/week 0) in relative species abundance ([1]; Symbol BACT_1555, Number 1469): 0.21
- Fold change (week 11/week 0) in relative species abundance ([1]; Symbol BACT_1569, Number 1462): 0.30
- Fold change (week 11/week 0) in relative species abundance ([1]; Symbol BACT_1595, Number 1533): 0.00
- Fold change (week 11/week 0) in relative species abundance ([1]; Symbol BACT_1596, Number 1502): 0.12
- Fold change (week 11/week 0) in relative species abundance ([1]; Symbol BACT_1656, Number 1503): 0.12
- Fold change (week 11/week 0) in relative species abundance ([1]; Symbol BACT_3004, Number 5797): 11.92
- Fold change (week 11/week 0) in relative species abundance ([1]; Symbol BACT_3005, Number 5799): 1.01
- Fold change (week 11/week 0) in relative species abundance ([1]; Symbol BACT_3007, Number 5798): 1.89
- Fold change (week 11/week 0) in relative species abundance ([1]; Symbol BACT_3024, Number 5841): 0.02
- Fold change (week 11/week 0) in relative species abundance ([1]; Symbol BACT_3045, Number 5818): 0.01
- Fold change (week 11/week 0) in relative species abundance ([1]; Symbol BACT_3056, Number 5836): 0.00
- Fold change (week 11/week 0) in relative species abundance ([1]; Symbol BACT_3058, Number 5816): 0.11
- Fold change (week 11/week 0) in relative species abundance ([1]; Symbol BACT_3060, Number 5821): 0.00
- Fold change (week 11/week 0) in relative species abundance ([1]; Symbol BACT_3062, Number 5800): 0.99
- Fold change (week 11/week 0) in relative species abundance ([1]; Symbol BACT_3085, Number 5842): 0.03
- Fold change (week 11/week 0) in relative species abundance ([1]; Symbol BACT_3092, Number 5793): 2.71
- Fold change (week 11/week 0) in relative species abundance ([1]; Symbol BACT_4040, Number 5769): 1.16
- Fold change (week 11/week 0) in relative species abundance ([1]; Symbol BACT_4042, Number 5770): 0.04
- Fold change (week 11/week 0) in relative species abundance ([1]; Symbol EUKY_22, Number 1758): 0.45
- Fold change (week 11/week 0) in relative species abundance ([1]; Symbol EUKY_141, Number 1875): 0.53
- Fold change (week 11/week 0) in relative species abundance ([1]; Symbol EUKY_222, Number 1954): 0.49
- Fold change (week 11/week 0) in relative species abundance ([1]; Symbol V1RL3522, Number 3522): 0.02
- Firmicutes relative abundance in stool culture ([2]; control 22%): 6%
- Bacteroidetes phyla relative abundance in stool culture ([2]; control 70%): 89%

— patent publication US20190022152A1, “MICROBIOME RESPONSE TO AGENTS” (Yeda Research and Development Co., Ltd., priority 2014, published 2019)
